Counter-ions that a name gives are not always drawn.
Experiments:
human PRMT6 = molecular target: T1, human PRMT6 (Homo sapiens, UniProt Q96LA8); test: PRMT6 Biochemical Assay (3H-SAM Flashplate, peptide substrate)
T1 construct: Flag-PRMT6-His; made in house; host or cells: HEK 293F cells (BacMam baculovirus)
From the text: (§1) S-adenosylmethionine (SAM), S-adenosylhomocysteine (SAH), bicine, Tween20, dimethylsulfoxide (DMSO), bovine skin gelatin (BSG), sodium butyrate and Tris(2-carboxyethyl)phosphine hydrochloride solution (TCEP) were purchased from Sigma-Aldrich at the highest level of purity possible. ^3H-SAM was purchase from American Radiolabeled Chemicals with a specific activity of 80 Ci/mmol. 384-well streptavidin Flashplates were purchased from PerkinElmer.
Peptide representative of human histone H4 residues 36-50 was synthesized with an N-terminal linker-affinity tag motif and a C-terminal amide cap by 21st Century Biochemicals.
The amplified gene was subcloned into pFastBacMam (Viva Biotech).
Recombinant baculovirus were generated according to Bac-to-Bac kit instructions (Life Technologies). […] Infections were carried out at 37° C. for 48 hours, harvested by centrifugation, and stored at −80° C. for purification.
Column was washed with 20 mM imidazole in the same buffer and Flag-PRMT6-His was eluted with 150 mM imidazole. […] Flag-PRMT6-His was eluted with 200 ug/ml FLAG peptide in the same buffer. Pooled fractions were dialysed in 20 mM Tris, 150 mM NaCl, 10% glycerol and 5 mM β-mercaptoethanol, pH 7.8.
General Procedure for PRMT6 Enzyme Assays on Peptide Substrates.
(§2) The assays were all performed in a buffer consisting of 20 mM Bicine (pH=7.6), 1 mM TCEP, 0.005% BSG, and 0.002% Tween 20, prepared on the day of use. […] DMSO (1 ul) was added to Columns 11, 12, 23, 24, rows A-H for the maximum signal control and 1 ul of SAH, a known product and inhibitor of PRMT6, was added to columns 11, 12, 23, 24, rows I-P for the minimum signal control. A cocktail (40 ul) containing the PRMT6 enzyme was added by Multidrop Combi (Thermo-Fisher). The compounds were allowed to incubate with PRMT6 for 30 min at room temperature, then a cocktail (10 ul) containing SAM and peptide was added to initiate the reaction (final volume=51 ul). […] The assays were stopped by the addition of non-radiolabeled SAM (10 ul) to a final concentration of 400 uM, which dilutes the ^3H-SAM to a level where its incorporation into the peptide substrate is no longer detectable. 50 ul of the reaction in the 384-well polypropylene plate was then transferred to a 384-well Flashplate and the biotinylated peptides were allowed to bind to the streptavidin surface for at least 1 hour before being washed once with 0.1% Tween20 in a Biotek ELx405 plate washer. The plates were then read in a PerkinElmer TopCount plate reader to measure the quantity of ^3H-labeled peptide bound to the Flashplate surface, measured as disintegrations per minute (dpm) or alternatively, referred to as counts per minute (cpm).
(§3) Where dpm=disintegrations per minute, cmpd=signal in assay well, and min and max are the respective minimum and maximum signal controls.
(§4) Where top and bottom are the normally allowed to float, but may be fixed at 100 or 0 respectively in a 3-parameter fit. The Hill Coefficient normally allowed to float but may also be fixed at 1 in a 3-parameter fit. Y is the % inhibition and X is the compound concentration.

human PRMT8 = human PRMT8 (Homo sapiens, UniProt Q9NR22); test: PRMT8 Biochemical Assay (3H-SAM Flashplate, peptide substrate); settings: single experiment or average of multiple experiments
From the text: as §1, with “isopropyl-β-D-thiogalactopyranoside (IPTG),” for “sodium butyrate”
Peptide representative of human histone H4 residues 31-45 was synthesized with an N-terminal linker-affinity tag motif and a C-terminal amide cap by 21st Century Biochemicals.
E. coli (BL21(DE3) Gold, Stratagene) made competent by the CaCl2 method were transformed with the PRMT8 construct and ampicillin selection. Protein over-expression was accomplished by growing the PRMT8 expressing E. coli clone and inducing expression with 0.3 mM IPTG at 16° C. The culture was grown for 12 hours, harvested by centrifugation, and stored at −80° C. for purification.
GST-tagged PRMT8 was eluted with 50 mM Tris, 2 mM glutathione, pH 7.8. Pooled fractions were cleaved by thrombin (10 U) and dialysed in buffer A. GST was removed by reloading the cleaved protein sample onto glutathione sepharose column and PRMT8 was collected in the flow-through fractions. PRMT8 was purified further by ceramic hydroxyapatite chromatography. The column was washed with 50 mM phosphate buffer, 100 mM NaCl, 5% glycerol, 5 mM β-mercaptoethanol, pH 7.8 and PRMT8 was eluted by 100 mM phosphate in the same buffer. Protein was concentrated and buffer was exchanged to 50 mM Tris, 300 mM NaCl, 10% glycerol, 5 mM β-mercaptoethanol, pH 7.8 by ultrafiltration.
General Procedure for PRMT8 Enzyme Assays on Peptide Substrates.
as §2, with “of PRMT8,” for “of PRMT6,”, “the PRMT8” for “the PRMT6”, “with PRMT8” for “with PRMT6”, “containing ^3H-SAM” for “containing SAM”
as §3, §4

[1] = Biochemical IC50 PRMT6, single experiment or average of multiple experiments

T1 sequence (Q96LA8 with tags, fused parts or gaps): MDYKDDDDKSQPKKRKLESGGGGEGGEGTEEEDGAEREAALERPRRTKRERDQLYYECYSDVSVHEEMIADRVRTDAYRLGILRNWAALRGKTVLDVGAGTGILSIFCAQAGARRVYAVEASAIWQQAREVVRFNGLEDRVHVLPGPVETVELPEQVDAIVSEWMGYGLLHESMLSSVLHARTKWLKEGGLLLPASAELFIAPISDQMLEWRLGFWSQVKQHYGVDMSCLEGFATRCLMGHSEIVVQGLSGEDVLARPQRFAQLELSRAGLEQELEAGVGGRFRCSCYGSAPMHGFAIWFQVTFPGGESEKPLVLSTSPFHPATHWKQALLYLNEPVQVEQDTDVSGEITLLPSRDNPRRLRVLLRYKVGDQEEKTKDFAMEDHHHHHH
human PRMT8, sequence (Q9NR22 whole entry): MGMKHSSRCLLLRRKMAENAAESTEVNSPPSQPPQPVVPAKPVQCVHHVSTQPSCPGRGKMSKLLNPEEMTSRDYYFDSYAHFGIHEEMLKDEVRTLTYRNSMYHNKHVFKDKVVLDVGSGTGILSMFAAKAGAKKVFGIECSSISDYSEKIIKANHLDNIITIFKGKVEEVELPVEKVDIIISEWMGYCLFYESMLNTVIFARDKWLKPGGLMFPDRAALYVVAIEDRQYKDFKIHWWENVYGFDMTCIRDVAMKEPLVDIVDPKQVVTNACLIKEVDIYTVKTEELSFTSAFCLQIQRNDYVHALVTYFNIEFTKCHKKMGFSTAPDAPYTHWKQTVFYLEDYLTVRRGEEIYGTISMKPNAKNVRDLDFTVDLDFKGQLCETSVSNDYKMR

SMILES | IC50 (human PRMT6; [1]) [µM] | IC50 (human PRMT8) [µM] | IC50 (human PRMT6; Biochemical IC50 PRMT6) [µM]
COCCn1ncc(CN(C)CCN)c1-c1ccc(F)cc1 [Compound 6] | 0.312 | – | –
CCn1ncc(CN(C)CCNC)c1-c1ccc(F)cc1 [Compound 7] | 0.0383 | 3.24 | –
CCn1cc(CN(C)CCNC)c(-c2ccc(F)cc2)n1 [Compound 8] | 0.287 | 7.2 | –
CN(CCN)Cc1c[nH]nc1-c1ccc(OCC(F)(F)F)cc1 [Compound 96] | 0.00709 | 0.171 | –
CC(C)Oc1ccc(-c2n[nH]cc2CN(C)CCN)cc1F [Compound 97] | 0.00735 | 0.089 | –
CN(CCN)Cc1c[nH]nc1-c1ccc(C2CCOCC2)cc1 [Compound 98] | 0.0154 | 0.156 | –
CN(CCN)Cc1n[nH]cc1-c1ccc(C#N)cc1 [Compound 100] | 0.0112 | 0.29 | –
CC(C)c1ccc(-c2c[nH]nc2CN(C)CCN)cc1 [Compound 101] | 0.136 | 0.57 | –
CN(CCN)Cc1n[nH]cc1-c1ccc(Cl)cc1 [Compound 102] | 0.00902 | 0.311 | –
CN(CCN)Cc1n[nH]cc1-c1ccc(C(F)(F)F)cc1 [Compound 103] | 0.017 | 0.366 | –
CN(CCN)Cc1n[nH]cc1-c1ccc(C2CC2)cc1 [Compound 104] | 0.0453 | 0.301 | –
CN(CCN)Cc1n[nH]cc1-c1ccc(OC(F)(F)F)cc1 [Compound 105] | 0.0556 | 0.13 | –
CC(=O)c1cccc(-c2n[nH]cc2CN(C)CCN)c1 [Compound 112] | 0.0847 | 0.335 | –
CN(CCN)Cc1c[nH]nc1-c1ccc(OC2CC2)cc1 [Compound 114] | 0.0162 | 0.0475 | –
CC(O)c1ccc(-c2n[nH]cc2CN(C)CCN)cc1 (stereo not drawn) [Compound 115] | 0.0254 | 1.1 | –
CN(CCN)Cc1c[nH]nc1-c1ccc(C2CC2)cc1 [Compound 116] | 0.0073 | 0.124 | –
CN(CCN)Cc1c[nH]nc1-c1ccc(C(F)(F)F)c(Cl)c1 [Compound 117] | 0.00487 | 0.0878 | –
CN(CCN)Cc1n[nH]cc1-c1ccc(OC2CC2)cc1 [Compound 119] | 0.088 | 0.336 | –
CN(CCN)Cc1c[nH]nc1-c1cccc(Cl)c1 [Compound 122] | 0.00899 | 0.548 | –
COc1ccc(-c2n[nH]cc2CN(C)CCN)cc1Cl [Compound 125] | 0.00665 | 0.308 | –
COc1cc(Cl)cc(-c2n[nH]cc2CN(C)CCN)c1 [Compound 127] | 0.0141 | 0.548 | –
COc1cccc(-c2n[nH]cc2CN(C)CCN)c1 [Compound 130] | 0.0634 | 0.645 | –
CN(CCN)Cc1c[nH]nc1-c1ccc(Cl)cc1F [Compound 132] | 0.00991 | 0.365 | –
CCNC(=O)c1ccc(-c2n[nH]cc2CN(C)CCN)cc1 [Compound 136] | 0.0129 | 0.496 | –
CN(CCN)Cc1c[nH]nc1-c1cc(Cl)cc(Cl)c1 [Compound 137] | 0.00842 | 0.656 | –
CN(CCN)Cc1n[nH]cc1-c1ccc(OC(F)F)cc1 [Compound 138] | 0.0445 | 0.131 | –
CN(CCN)Cc1c[nH]nc1-c1ccccc1C#N [Compound 140] | 3.01 | 8.27 | –
CCN(CC)C(=O)c1ccc(-c2n[nH]cc2CN(C)CCN)cc1 [Compound 143] | 0.107 | 1.75 | –
CNCCN(C)Cc1cnn(C)c1-c1ccc(OC(C)C)cc1 [Compound 244, hydrochloride] | 0.0451 | – | < 0.1

Second part, led by results:

IC50 (human PRMT6; [1]) [µM] | IC50 (human PRMT8) [µM] | SMILES | IC50 (human PRMT6; Biochemical IC50 PRMT6) [µM]
0.0279 | 2.2 | CN(CCN)Cc1c[nH]nc1-c1ccc(F)cc1F [Compound 99] | –
0.015 | 0.912 | COc1ccc(-c2n[nH]cc2CN(C)CCN)c(F)c1 [Compound 107] | –
0.00949 | 1 | Cc1ccc(-c2n[nH]cc2CN(C)CCN)c(F)c1 [Compound 108] | –
0.217 | 2.08 | COc1ccccc1-c1n[nH]cc1CN(C)CCN [Compound 109] | –
0.0165 | 0.54 | Cc1cc(C#N)ccc1-c1n[nH]cc1CN(C)CCN [Compound 110] | –
0.0118 | 0.799 | CN(CCN)Cc1c[nH]nc1-c1cc(F)cc(F)c1 [Compound 111] | –
0.00318 | 0.136 | CN(CCN)Cc1c[nH]nc1-c1ccc(Cl)c(F)c1 [Compound 118] | –
0.00748 | 0.218 | CN(CCN)Cc1c[nH]nc1-c1cc(F)cc(Cl)c1 [Compound 121] | –
0.0171 | 0.532 | CN(CCN)Cc1c[nH]nc1-c1cccc(Cl)c1F [Compound 123] | –
0.00715 | 0.294 | CN(CCN)Cc1c[nH]nc1-c1ccc(F)c(Cl)c1 [Compound 124] | –
0.00494 | 0.232 | Cc1ccc(-c2n[nH]cc2CN(C)CCN)cc1Cl [Compound 126] | –
0.0528 | 0.99 | Cc1c(F)cccc1-c1n[nH]cc1CN(C)CCN [Compound 129] | –
0.0121 | 0.36 | Cc1cccc(-c2n[nH]cc2CN(C)CCN)c1 [Compound 131] | –
0.0101 | 0.142 | Cc1cc(Cl)ccc1-c1n[nH]cc1CN(C)CCN [Compound 133] | –
0.0108 | 0.251 | COc1ccc(-c2n[nH]cc2CN(C)CCN)cc1F [Compound 134] | –
0.0289 | 1.32 | CN(CCN)Cc1c[nH]nc1-c1ccc(C(F)(F)F)cc1Cl [Compound 135] | –
0.00779 | 0.305 | CN(CCN)Cc1c[nH]nc1-c1ccc(C(F)(F)F)c(F)c1 [Compound 141] | –
0.0162 | 0.273 | COc1cc(-c2n[nH]cc2CN(C)CCN)ccc1F [Compound 142] | –

Reference: US9776972B2, “Pyrazole derivatives as arginine methyltransferase inhibitors and uses thereof” (priority 2013, dated 2017)
